Here are results for three molecules from patent US20100137449A1, “SUBSTITUTED 1,3-CYCLOPENTADIONE MULTI-TARGET PROTEIN KINASE MODULATORS OF CANCER, ANGIOGENESIS AND THE INFLAMMATORY PATHWAYS ASSOCIATED THEREWITH” (METAPROTEOMICS, LLC, priority 2007, published 2010).

Molecules are shown by their SMILES. Marks after values point to notes of the source that are not given here.

Assay [1] has as its system rat aortic rings. As to the kind of experiment: Ex vivo rat aortic ring angiogenesis assay. It is filed as cell-based. As for the experimental part:
These ex vivo organo-typic cultures were treated with single compound. […] Neovascularization was evaluated as a marker of the observed angiogenic response.
Statistical analysis—Analysis of variance was performed on the six observations per treatment for the controls and two test concentrations after normalizing to the dimethyl sulfoxide control. The probability of a type I error was set at the nominal five percent level.

Assay [2] has as its system HUVEC. As to the kind of experiment: Migration wound healing assay. Type of assay: cell-based.
Experimental: Methodology—A day before the assay, 5×10^5 endothelial cells were plated in E-well plates and grown in adequate complete medium over night. Confluent HUVEC monolayers were then scraped to create a wound. Cells were the treated with 20 ug/ml of each drug. After wounding and 6 hours later, two different fields of each wound were photographed with a phase-contrast microscope. Measurements of the width of each wound were made in each experimental condition. At the start of the experiment, the wound size was measured and scored as 100%. After 6 hours, the width of the remaining wound was measured and average percent wound closure was calculated.
The test system of assay [3] is endothelial cells. As to the kind of experiment: Proliferation assay (DNA content, Hoechst 33258). Type of assay: cell-based. The method, then: Methodology—A day before the assay, 1×10^4 endothelial cells were plated in quadruplicate in 24-well plates ad grown in adequate complete medium over night. Cells were then treated with 10 ug/ml and 20 ug/ml of each drug. […] The dilutions and concentrations of the dyes were chosen to yield appropriate dye/base pair ratios that are crucial to obtain maximal linearity and sensitivity of the DNA quantification assays. After an incubation time of ˜10 min, fluorescence intensities were measure. All investigations were generally performed at room temperature with the solutions protected from light. Spectrofluorimetric measurements were performed with Spectramax Gemini XS. […] Florescence values were converted into DNA concentrations according to the fluorescence intensities of DNA standard calibration curves.

For assay [4], the target named is T1, Bmx(h) (Homo sapiens, UniProt P51813).
T1 sequence (P51813 1-675): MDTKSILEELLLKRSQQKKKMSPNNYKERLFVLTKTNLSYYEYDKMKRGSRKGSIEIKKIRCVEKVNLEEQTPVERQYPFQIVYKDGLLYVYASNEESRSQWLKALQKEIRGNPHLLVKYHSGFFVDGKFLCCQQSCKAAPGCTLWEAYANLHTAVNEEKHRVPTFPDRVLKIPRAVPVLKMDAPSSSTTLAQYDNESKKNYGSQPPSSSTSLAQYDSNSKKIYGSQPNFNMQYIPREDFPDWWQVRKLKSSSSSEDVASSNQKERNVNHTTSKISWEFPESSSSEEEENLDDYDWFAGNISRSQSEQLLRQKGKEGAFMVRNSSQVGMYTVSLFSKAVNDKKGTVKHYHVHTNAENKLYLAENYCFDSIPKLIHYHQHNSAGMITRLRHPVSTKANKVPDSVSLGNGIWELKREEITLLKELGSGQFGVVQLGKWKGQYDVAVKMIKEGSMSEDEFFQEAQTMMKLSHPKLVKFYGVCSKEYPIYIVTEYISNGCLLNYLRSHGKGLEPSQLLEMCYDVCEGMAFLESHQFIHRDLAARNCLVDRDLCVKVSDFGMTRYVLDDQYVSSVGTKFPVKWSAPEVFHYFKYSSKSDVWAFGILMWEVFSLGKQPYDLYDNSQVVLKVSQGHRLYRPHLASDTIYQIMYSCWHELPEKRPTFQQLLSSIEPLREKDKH
As to the kind of experiment: KinaseProfiler Assay.

As for `COc1cc(O)c(CC=C(C)C)c(O)c1C(=O)/C=C/c1ccc(O)cc1` [Xanthohumol, xanthohumol], the “Relative Number of Vessels vs Dimethyl Sulfoxide Controls” value in assay [1] (5.0 μg/mL) is on record as 95.9; in assay [1] (20 μg/mL), 100. Further, the “vessel growth (in words)” value in assay [1] (20 and 5 μg/mL) is on record as “not active”. Further, the “Summary of Effects: Aortic Angiogenesis” value in assay [1] (summary table) is reported as “Not Active”. Besides, in assay [2] (20 μg/mL, HUVEC, six hours), the “Relative Percent Wound Closure at Six Hours vs Dimethyl Sulfoxide Controls” value was 45** Percent. In addition, the “wound closure (in words)” value in assay [2] (20 ug/ml, 6 hours) was “most active of the test materials”. Moreover, the “Summary of Effects: Migration” value in assay [2] (summary table) is on record as −60%. The “Relative DNA Content vs Dimethyl Sulfoxide Controls” value in assay [3] (24 Hours, 10 μg/mL) is given as 95; in assay [3] (24 Hours, 20 μg/mL), 66**; in assay [3] (48 Hours, 10 μg/mL) it was 82**; in assay [3] (48 Hours, 20 μg/mL), 57**; in assay [3] (72 Hours, 10 μg/mL), 71**; in assay [3] (72 Hours, 20 μg/mL), 42**. Moreover, the “Summary of Effects: Proliferation” value in assay [3] (summary table) is −60%.
As for `CC(C)CCC(=O)[C@]1(O)C(O)=C(C(=O)C(C)C)C(=O)[C@H]1CCC(C)C` [TH1, tetrahydro-isocohumulone], the “activity in inhibiting BMX in comparison with TH4 and TH5” value in assay [4] (100 μg/ml) is listed as “about 50%”.
Turning to `CCC(C)C(=O)C1=C(O)[C@@](O)(C(=O)CCC(C)C)[C@H](CCC(C)C)C1=O` (stereo partly shown) [TH4, tetrahydro-isoadhumulone], the “inhibition of BMX kinase” value in assay [4] (100 μg/mL) was “inhibit it almost completely”.
